One test concerns the target T1, AKT1 WT (Homo sapiens, UniProt P31749).
T1 construct: expressed in transfected cells; host or cells: HEK293
Description: Live cell AKT1 WT target engagement by NanoBRET competitive probe displacement in HEK293 cells. Type of test: binding. The following applies: 2 h at 37° C., read-out: AKT1 WT IC50. On the technique in general: In BRET a luciferase serves as donor, and the signal depends on an acceptor being close.

A further test concerns the target T2, AKT2 (Homo sapiens, UniProt P31751).
T2 construct: expressed in transfected cells; host or cells: HEK293
Description: Live cell AKT2 target engagement by NanoBRET competitive probe displacement in HEK293 cells. To be noted: 2 h at 37° C., read-out: AKT2 IC50. The class given is binding.

Setting [1] is: NanoBRET competitive probe displacement, live HEK293 cells.
Where [2] appears, read: NanoBRET live cell target engagement, HEK293 cells.

Like-named read-outs stand apart in the source and are kept apart here.

T1 sequence (P31749 whole entry): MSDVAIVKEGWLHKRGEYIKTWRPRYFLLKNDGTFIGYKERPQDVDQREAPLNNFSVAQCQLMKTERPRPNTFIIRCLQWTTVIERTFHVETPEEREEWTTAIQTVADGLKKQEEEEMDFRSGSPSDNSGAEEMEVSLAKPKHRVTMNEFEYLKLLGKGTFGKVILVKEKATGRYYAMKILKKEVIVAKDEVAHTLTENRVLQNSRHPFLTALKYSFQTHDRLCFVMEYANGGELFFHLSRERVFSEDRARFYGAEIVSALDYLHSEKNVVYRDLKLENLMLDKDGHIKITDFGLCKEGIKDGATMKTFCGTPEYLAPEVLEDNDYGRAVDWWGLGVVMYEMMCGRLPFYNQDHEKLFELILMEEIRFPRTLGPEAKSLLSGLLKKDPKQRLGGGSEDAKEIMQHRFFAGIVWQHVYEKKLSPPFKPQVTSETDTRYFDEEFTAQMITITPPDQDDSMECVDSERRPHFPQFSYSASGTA
T2 sequence (P31751 whole entry): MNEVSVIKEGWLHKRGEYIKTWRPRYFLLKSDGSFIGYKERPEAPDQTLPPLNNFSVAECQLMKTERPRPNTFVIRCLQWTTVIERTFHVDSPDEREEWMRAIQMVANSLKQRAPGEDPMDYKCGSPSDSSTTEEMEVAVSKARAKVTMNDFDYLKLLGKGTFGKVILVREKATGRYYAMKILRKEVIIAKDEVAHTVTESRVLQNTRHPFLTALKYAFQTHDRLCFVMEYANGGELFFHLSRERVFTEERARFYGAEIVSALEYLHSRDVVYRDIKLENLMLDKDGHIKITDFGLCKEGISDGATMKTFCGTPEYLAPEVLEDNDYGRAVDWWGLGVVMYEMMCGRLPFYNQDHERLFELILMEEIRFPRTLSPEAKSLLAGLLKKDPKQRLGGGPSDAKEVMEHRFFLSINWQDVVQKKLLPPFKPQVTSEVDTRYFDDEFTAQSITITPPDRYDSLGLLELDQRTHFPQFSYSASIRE

Usually IC50 stands for the point on the concentration scale where inhibition reaches its midpoint. As to `CS(=O)(=O)c1ccn(-c2ccc3nc(-c4cccnc4N)n(-c4ccc5c(c4)CC[C@@H]5NC4CCN(C(=O)C5CC5)CC4)c3n2)n1` [Compound 554], the half-maximal inhibitory concentration (IC50) at AKT1 WT (setting [1]) was found to be 339 nM; at AKT2 (setting [1]) it was 9260 nM.

As for `Cc1ccc(C(=O)N[C@H]2CCc3cc(-n4c(-c5cccnc5N)nc5ccc(-c6ncc(C)s6)nc54)ccc32)cn1` [Compound 314], the IC50 at AKT1 WT (setting [2]) was determined as 10.5 nM; at AKT2 (setting [2]) it was 70.4 nM.

Regarding `Cc1ncccc1C(=O)N[C@H]1CCc2cc(-n3c(-c4cccnc4N)nc4c(C)cc(-n5cccn5)nc43)ccc21` [Compound 100], the 50% inhibitory concentration (IC50) at AKT1 WT (setting [2]) turned out to be 17.2 nM; on AKT2 (setting [2]) it was 24.9 nM.

`CCc1ccc(C(=O)N[C@H]2CCc3cc(-n4c(-c5cccnc5N)nc5ccc(-n6cccn6)nc54)ccc32)cn1` [Compound 80]: the concentration for half-maximal inhibition (IC50) is 8.65 nM on AKT1 WT (setting [2]) and 28.4 nM at AKT2 (setting [2]).

Consider `Nc1ncccc1-c1nc2ccc(-n3cccn3)nc2n1-c1ccc2c(c1)CC[C@@H]2n1cnnc1` [Compound 248, (S)-3-(3-(1-(4H-1,2,4-triazol-4-yl)-2,3-dihydro-1H-inden-5-yl)-5-(1H-pyrazol-1-yl)-3H-imidazo[4,5-b]pyridin-2-yl)pyridin-2-amine], for which the half-inhibitory concentration (IC50) on AKT1 WT (setting [2]) came to 20.2 nM; on AKT2 (setting [2]) it was 107 nM.

`Nc1ncccc1-c1nc2ccc(-n3cccn3)nc2n1-c1ccc2c(c1)CC[C@@H]2NC(=O)c1ccc(N2CCOCC2)nc1` [Compound 95]: the IC50 on AKT1 WT (setting [2]) came to 6.98 nM; at AKT2 (setting [2]), 9.41 nM.

For the molecule `Nc1ncccc1-c1nc2ccc(-n3cccn3)nc2n1-c1ccc2c(c1)CC[C@@H]2NC(=O)c1cccnc1C#Cc1ccccc1` [Compound 210], the values for the half-maximal inhibitory concentration (IC50) at AKT1 WT (setting [2]) and on AKT2 (setting [2]) were 95.8 nM and 596 nM, respectively.

Take `CC(=O)Nc1ccc(C(=O)N[C@H]2CCc3cc(-n4c(-c5cccnc5N)nc5ccc(-n6cccn6)nc54)ccc32)cc1` [Compound 196]: the IC50 was determined as 9.31 nM at AKT1 WT (setting [2]) and 72.4 nM at AKT2 (setting [2]).

Regarding `Nc1ncccc1-c1nc2ccc(-n3cccn3)nc2n1-c1ccc2c(c1)CC[C@@H]2NC1CCN(C(=O)[C@H]2C[C@H]2F)CC1` [Compound 478], the IC50 at AKT1 WT (setting [1]) turned out to be 126 nM; at AKT2 (setting [1]) it was 3170 nM.

As for `COc1ncc(C(=O)N[C@H]2CCc3cc(-n4c(-c5cccnc5N)nc5ccc(-n6cccn6)nc54)ccc32)cc1F` [Compound 162], the half-maximal inhibitory concentration (IC50) on AKT1 WT (setting [2]) amounted to 9.12 nM; on AKT2 (setting [2]) it was 37.8 nM.

Take `Cc1ncccc1C(=O)N[C@@H]1c2ccc(-n3c(-c4cccnc4N)nc4ccc(-n5cccn5)nc43)cc2CC1F` (some centres unmarked) [Compound 148]: the half-maximal inhibitory concentration (IC50) is 16.7 nM on AKT1 WT (setting [2]) and 107 nM at AKT2 (setting [2]).

On to `CN(C)Cc1ccc(C(=O)N[C@H]2CCc3cc(-n4c(-c5cccnc5N)nc5ccc(-n6cccn6)nc54)ccc32)cn1` [Compound 85], for which the IC50 at AKT1 WT (setting [2]) is 36.3 nM; at AKT2 (setting [2]) it was 169 nM.

Regarding `Nc1ncccc1-c1nc2ccc(-n3ccc(N4CCC4)n3)nc2n1-c1ccc2c(c1)CC[C@@H]2NC1CCN(C(=O)C2CC2)CC1` [Compound 562], the concentration for half-maximal inhibition (IC50) was 9.77 nM at AKT1 WT (setting [1]) and 430 nM at AKT2 (setting [1]).

With `Nc1ncccc1-c1nc2ccc(-n3cccn3)nc2n1-c1ccc2c(c1)CC[C@@H]2NC(=O)c1ccc2ccnn2c1` [Compound 290], the concentration for half-maximal inhibition (IC50) worked out at 3.83 nM at AKT1 WT (setting [2]) and 18.9 nM on AKT2 (setting [2]).

For the molecule `Cc1ncccc1-c1cn([C@H]2CCc3cc(-n4c(-c5cccnc5N)nc5ccc(-n6cccn6)nc54)ccc32)nn1` [Compound 254], the results for the IC50 on AKT1 WT (setting [2]) and at AKT2 (setting [2]) were 23.9 nM and 753 nM, respectively.

`Nc1ncccc1-c1nc2ccc(-n3cccn3)nc2n1-c1ccc2c(c1)CC[C@@H]2NC1CCN(C(=O)C2CC2(F)F)CC1` (some centres unmarked) [Compound 433]: the values for the IC50 at AKT1 WT (setting [1]) and on AKT2 (setting [1]) were 190 nM and 3530 nM, respectively.

As for `Nc1ncccc1-c1nc2ccc(-n3cccn3)nc2n1-c1ccc2c(c1)CC[C@@H]2NC1CCc2cnccc21` (some centres unmarked) [Compound 473], the IC50 on AKT1 WT (setting [1]) is 19 nM; on AKT2 (setting [1]), 28 nM.

As to `Nc1ncccc1-c1nc2ccc(-n3cccn3)nc2n1-c1ccc2c(c1)CC[C@@H]2NC1CCC1` [Compound 88, (S)-3-(3-(1-(cyclobutylamino)-2,3-dihydro-1H-inden-5-yl)-5-(1H-pyrazol-1-yl)-3H-imidazo[4,5-b]pyridin-2-yl)pyridin-2-amine], the IC50 turned out to be 155 nM at AKT1 WT (setting [2]) and 1810 nM at AKT2 (setting [2]).

Turning to `CN(C)CC#Cc1ccc2nc(-c3cccnc3N)n(-c3ccc4c(c3)CC[C@@H]4NC(=O)c3ccc(C(F)F)nc3)c2n1` [Compound 407], the concentration for half-maximal inhibition (IC50) on AKT1 WT (setting [1]) turned out to be 421 nM; at AKT2 (setting [1]), 3550 nM.

Consider `Nc1ncccc1-c1nc2ccc(-n3cccn3)nc2n1-c1ccc2c(c1)CC[C@@H]2NC(=O)c1cccnc1F` [Compound 127], for which the concentration for half-maximal inhibition (IC50) is 12.6 nM on AKT1 WT (setting [2]) and 126 nM at AKT2 (setting [2]).

Turning to `Cc1ccc(C(=O)N[C@H]2CCc3cc(-n4c(-c5cccnc5N)nc5ccc(-c6cnn(C)n6)nc54)ccc32)cn1` [Compound 268], the IC50 on AKT1 WT (setting [2]) was determined as 7.96 nM; at AKT2 (setting [2]), 100 nM.

Regarding `Nc1ncccc1-c1nc2ccc(-n3cccn3)nc2n1-c1ccc2c(c1)CC[C@@H]2NCc1ccccn1` [Compound 131], the values for the IC50 on AKT1 WT (setting [2]) and on AKT2 (setting [2]) were 42.5 nM and 785 nM, respectively.

For `Nc1ncccc1-c1nc2ccc(-n3cccn3)nc2n1-c1ccc2c(c1)CC[C@@H]2NC(=O)c1ccnc2c1OC(F)(F)O2` [Compound 317], the half-maximal inhibitory concentration (IC50) on AKT1 WT (setting [2]) was 131 nM; on AKT2 (setting [2]), 1730 nM.

In the case of `Nc1ncccc1-c1nc2ccc(-c3ccn(C4CCOCC4)n3)nc2n1-c1ccc2c(c1)CC[C@@H]2NC1CCN(C(=O)C2CC2)CC1` [Compound 555], the IC50 is 64.4 nM on AKT1 WT (setting [1]) and 1570 nM at AKT2 (setting [1]).

Regarding `Nc1ncccc1-c1nc2ccc(-n3nccn3)nc2n1-c1ccc2c(c1)CC[C@@H]2NC(=O)c1cccnc1C(F)F` [Compound 107], the figures for the half-maximal inhibitory concentration (IC50) at AKT1 WT (setting [2]) and on AKT2 (setting [2]) were 118 nM and more than 10000 nM, respectively.

Take `Nc1ncccc1-c1nc2ccc(-n3ccc(OC(F)F)n3)nc2n1-c1ccc2c(c1)CC[C@@H]2NC(=O)c1ccc(C2CC2)nc1` [Compound 537]: the IC50 is 2.77 nM on AKT1 WT (setting [1]) and 15.3 nM at AKT2 (setting [1]).

As for `Nc1ncccc1-c1nc2ccc(-n3cccn3)nc2n1-c1ccc2c(c1)CC[C@@H]2NC1Cc2cccnc2C1` (some centres unmarked) [Compound 531], the IC50 at AKT1 WT (setting [1]) is 50.6 nM; at AKT2 (setting [1]), 1280 nM.

As to `Nc1ncccc1-c1nc2ccc(-n3ccc(C4CC4)n3)nc2n1-c1ccc2c(c1)CC(F)[C@@H]2NC1CCN(C(=O)C2CC2)CC1` (some centres unmarked) [Compound 480], the values for the IC50 on AKT1 WT (setting [1]) and at AKT2 (setting [1]) were 38.9 nM and 3140 nM, respectively.

Take `Nc1ncccc1-c1nc2ccc(C#CC3CC3)nc2n1-c1ccc2c(c1)CC[C@@H]2n1cnnc1` [Compound 528]: the 50% inhibitory concentration (IC50) came to 17.2 nM at AKT1 WT (setting [1]) and 320 nM at AKT2 (setting [1]).

With `COc1nccc2c1CCC2N[C@H]1CCc2cc(-n3c(-c4cccnc4N)nc4ccc(-n5cccn5)nc43)ccc21` (some centres unmarked) [Compound 508], the values for the concentration for half-maximal inhibition (IC50) on AKT1 WT (setting [1]) and on AKT2 (setting [1]) were 75.9 nM and 627 nM, respectively.

Take `N#Cc1cc(C(=O)N[C@H]2CCc3cc(-n4c(-c5cccnc5N)nc5ccc(-n6cccn6)nc54)ccc32)ccc1O` [Compound 259]: the figures for the 50% inhibitory concentration (IC50) on AKT1 WT (setting [2]) and on AKT2 (setting [2]) were 204 nM and 1210 nM, respectively.

Regarding `CNS(=O)(=O)c1ccc(C(=O)N[C@H]2CCc3cc(-n4c(-c5cccnc5N)nc5ccc(-n6cccn6)nc54)ccc32)cc1` [Compound 308], the values for the IC50 on AKT1 WT (setting [2]) and on AKT2 (setting [2]) were 15.1 nM and 296 nM, respectively.

`Cc1ccc(C(=O)N[C@H]2CCc3cc(-n4c(-c5cccnc5N)nc5ccc(-n6cnc(C7CC7)n6)nc54)ccc32)cn1` [Compound 419]: the half-inhibitory concentration (IC50) came to 35.9 nM on AKT1 WT (setting [1]) and 540 nM on AKT2 (setting [1]).

On to `Nc1ncccc1-c1nc2ccc(-n3cccn3)nc2n1-c1ccc2c(c1)CC[C@@H]2NC1CCc2cc(O)ccc21` (single isomer, unassigned) [Compound 499], for which the IC50 worked out at 45.6 nM at AKT1 WT (setting [1]) and 897 nM at AKT2 (setting [1]).

On to `Cn1ccc(Oc2ccc3nc(-c4cccnc4N)n(-c4ccc5c(c4)CC[C@@H]5NC(=O)c4cnc(C(F)F)s4)c3n2)n1` [Compound 558], for which the figures for the half-maximal inhibitory concentration (IC50) on AKT1 WT (setting [1]) and at AKT2 (setting [1]) were 71.5 nM and 7510 nM, respectively.

Take `Cc1ncc(C(=O)N[C@H]2CCc3cc(-n4c(-c5cccnc5N)nc5ccc(-n6nccn6)nc54)ccc32)s1` [Compound 492]: the results for the concentration for half-maximal inhibition (IC50) on AKT1 WT (setting [1]) and on AKT2 (setting [1]) were 24.1 nM and 2120 nM, respectively.

As to `CN(C)Cc1cc(C(=O)N[C@H]2CCc3cc(-n4c(-c5cccnc5N)nc5ccc(-n6cccn6)nc54)ccc32)ccn1` [Compound 205], the IC50 at AKT1 WT (setting [2]) was 168 nM; on AKT2 (setting [2]), 2340 nM.

Consider `Nc1ncccc1-c1nc2ccc(-n3cccn3)nc2n1-c1ccc2c(c1)CC[C@@H]2NC1CC2(CCCN2c2ccccn2)C1` (some centres unmarked) [Compound 465], for which the results for the half-inhibitory concentration (IC50) on AKT1 WT (setting [1]) and at AKT2 (setting [1]) were more than 1000 nM and more than 10000 nM, respectively.

`N[C@@H]1c2ccc(-n3c(-c4ccccc4F)nc4ccc(-n5ccc(N6CCOCC6)n5)nc43)cc2CC1F` (some centres unmarked) [Compound 571]: the IC50 on AKT1 WT (setting [1]) amounted to 2.22 nM; on AKT2 (setting [1]) it was 176 nM.

On to `Nc1ncccc1-c1nc2ccc(-n3cccn3)nc2n1-c1ccc2c(c1)CC[C@@H]2NC(=O)c1cccnc1-n1cccn1` [Compound 90], for which the IC50 at AKT1 WT (setting [2]) came to 228 nM; at AKT2 (setting [2]), 5850 nM.

On to `Cc1ccc(C(=O)N[C@H]2CCc3cc(-n4c(-c5cccnc5N)nc5ccc(-n6cccn6)nc54)ccc32)c(C(F)F)n1` [Compound 167], for which the concentration for half-maximal inhibition (IC50) is 40.9 nM on AKT1 WT (setting [2]) and 830 nM at AKT2 (setting [2]).

Regarding `Nc1ncccc1-c1nc2ccc(-n3ccc(OC(F)F)n3)nc2n1-c1ccc2c(c1)CC[C@@H]2NC1[C@@H]2COC[C@H]1CN(C(=O)C1CC1)C2` (some centres unmarked) [Compound 561], the IC50 on AKT1 WT (setting [1]) came to 93.3 nM; at AKT2 (setting [1]) it was 3090 nM.

Take `CC#Cc1cc(C(=O)N[C@H]2CCc3cc(-n4c(-c5cccnc5N)nc5ccc(-n6cccn6)nc54)ccc32)ccn1` [Compound 171, (S)—N-(5-(2-(2-aminopyridin-3-yl)-5-(1H-pyrazol-1-yl)-3H-imidazo[4,5-b]pyridin-3-yl)-2,3-dihydro-1H-inden-1-yl)-2-(prop-1-yn-1-yl)isonicotinamide]: the IC50 at AKT1 WT (setting [2]) turned out to be 7.74 nM; at AKT2 (setting [2]), 82.9 nM.

These data come from patent US12624034B2, “Non-covalent modifiers of AKT1 and uses thereof” (Terremoto Biosciences, Inc., priority 2023, dated 2026).
